Results published in patent US20050107394A1, “Novel use of selective pde5 inhibitors” (priority 2001, published 2005).

System: rabbits
Experiment: Lung damage after inhaled bleomycin (characterisation of the model)
Assay type: in vivo, rabbit
Text: Healthy rabbits of both sexes were pretreated orally with a gyrase inhibitor (Baytril®) for one week. Ten animals pretreated in this way were not treated with bleomyin and served as control, and, on the day of exposure, the others were anaesthetized with a Ketanest®/Rompun® mixture, intubated intratracheally and ventilated mechanically. An ultrasonic nebulizer (MMAD 2.5 μm) was used to administer by inhalation exactly 1.8 U/kg of bodyweight of bleomycin under volume-controlled ventilation. After 4, 8, 16, 24, 32 and 64 days (in each case n≧5) post exposure, the animals were again anaesthetized, provided with an arterial access (right carotid artery) and underwent bodyweight-adapted ventilation via a tracheostomy in a volume-controlled method. The arterial pO2 and pCO2, and the static compliance of the lung were measured (by recording the intrathoracic pressure and with slow inflation/deflation manoeuvres). Subsequently, the lungs of these animals were dissected and perfused with a Krebs Hensefeit buffer. Under these conditions, the capillary filtraton coefficient (cfc) was then found from the weight gain of the organ after increasing the pulmonary venous pressure by 7.5 mmHg, and the peak ventilation pressure was found. After completion of these measurements, the left main bronchus was ligated in the end-inspiratory position and a bronchoalveolar lavage (BAL) was performed on the right lung. Subsequently, the large vessels and airways of the right lung were dissected off and the organ was homogenized. The left lung was perfusion-fixed with 4% formalin solution while maintaining a pressure gradient of 25 cm H2O and was then stored in 4% formalin until embedded. Firstly, the cells were removed from the BAL, counted and differentiated via a Papenheim stain. The cell-free BAL supernatant was then aliquoted and submitted to further analysis of the surfactant and coagulation properties and a determination of the matrix metallo proteinases (MMPs) and their inhibitors (TIMPs) and of soluble collagen. Bronchoalveolar deposition of 1.8 U/kg of bodyweight of bleomycin led initially to development of an ARDS-like event, with a massive restriction of gas exchange (paO2/FiO2 of >500 mmHg in the controls reduced to ˜110 mmHg on day 4), ground-glass opacities over all sections of the lung in the HRCT and an increase of about 5-fold in the capillary filtration coefficient (cfc). In the later phase of bleomycin-induced lung damage there was then development of pronounced fibrosis which could be confirmed on the basis of the increase in soluble collagen in the BAL and the hydroxyproline in the tissue, on the basis of the histological specimens and of the HRCT findings. […] Consistent with this, a pronounced increase in the extracellular matrix and an alveolar and also interstitial ingress of fibroblasts was observable in the histological sections. Besides the homogeneously distributed zones of fibrosis there were also thin hyperdistended sections of lung with a honeycomb appearance.

## bleomycin
After 64 days
  concentration of soluble collagen in the BAL: 7000 ± 2200 ng/mL
Day 4 after 1.8 U/kg bleomycin by inhalation, controls >500 mmHg
  paO2/FiO2: ~110 mmHg
Day 16 after bleomycin, controls 1.1±0.4
  concentration of soluble collagen in the BAL (maximum): 38300 ± 12500 ng/mL
Early phase after 1.8 U/kg bleomycin
  capillary filtration coefficient (cfc), increase: about 5 fold
From day 16 onwards
  hydroxyproline content of the tissue: approximately doubled
